Here are results for three compounds from PubChem BioAssay AID1259411 (Chemical Carcinogenesis Research Information System (CCRIS), 2018).

Activity calls are given as the source filed them. The rule behind the calls is not given here.

The data set relates to rodent carcinogenicity bioassays, tumor incidence. Nature of the data set: CCRIS carcinogenicity studies. Summed up: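 Archive of carcinogenicity, mutagenicity, tumor promotion and tumor inhibition results drawn from journals, NCI reports and other sources, expert-reviewed; covers 1985-2011 and is no longer updated.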

As for `ClC(Cl)C(Cl)(Cl)Cl`, the carcinogen call was “active; positive” (Species: MOUSE, Strain/Sex: B6C3F1/FEMALE, Route: GAVAGE, Dose: 250, 500 MG/KG IN CORN OIL FOR 41-103 WK (STUDY DURATION: 41-103 WK), Tumor Site: Type of Lesion: LIVER: HEPATOCELLULAR ADENOMA, CARCINOMA); “active; positive” (Species: MOUSE, Strain/Sex: B6C3F1/MALE, Route: GAVAGE, Dose: 250, 500 MG/KG IN CORN OIL FOR 41-103 WK (STUDY DURATION: 41-103 WK), Tumor Site: Type of Lesion: LIVER: HEPATOCELLULAR CARCINOMA); “inactive; negative” (Species: RAT, Strain/Sex: F344/FEMALE, Route: GAVAGE, Dose: 0, 75, 150 MG/KG IN CORN OIL FOR 103 WK (STUDY DURATION: 103 WK), Dose: 0, 75, 150 MG/KG IN CORN OIL FOR 103 WK (STUDY DURATION: 103 WK)); “equivocal” (Species: RAT, Strain/Sex: F344/MALE, Route: GAVAGE, Dose: 0, 75, 150 MG/KG IN CORN OIL FOR 103 WK (STUDY DURATION: 103 WK), Dose: 0, 75, 150 MG/KG IN CORN OIL FOR 103 WK (STUDY DURATION: 103 WK), Tumor Site: Type of Lesion: KIDNEY: TUBULAR CELL ADENOMA).

Take `Cc1cccn2c1nc1ccc(N)nc12`: the carcinogen call runs as follows: (Species: MOUSE, Strain/Sex: B6C3F1/MALE, Route: INTRAPERITONEAL, Dose: 0, 0.625 UMOL IN 35 µL DMSO ON D 1, 8, AND 15 AFTER BIRTH (STUDY DURATION: 8 MO), Tumor Site: Type of Lesion: LIVER: HEPATOCELLULAR ADENOMA) “active; positive”; (Species: MOUSE, Strain/Sex: B6C3F1/MALE, Route: INTRAPERITONEAL, Dose: 0, 0.625 UMOL IN 35 µL DMSO ON D 1, 8, AND 15 AFTER BIRTH (STUDY DURATION: 12 MO), Tumor Site: Type of Lesion: LIVER: HEPATOCELLULAR ADENOMA) “active; positive”; (Species: MOUSE, Strain/Sex: B6C3F1/MALE, Route: INTRAPERITONEAL, Dose: 0, 1.25 UMOL IN 35 µL DMSO ON D 1, 8, AND 15 AFTER BIRTH (STUDY DURATION: 8 MO), Tumor Site: Type of Lesion: LIVER: HEPATOCELLULAR ADENOMA) “active; positive”; (Species: MOUSE, Strain/Sex: B6C3F1/MALE, Route: INTRAPERITONEAL, Dose: 0, 1.25 UMOL IN 35 µL DMSO ON D 1, 8, AND 15 AFTER BIRTH (STUDY DURATION: 12 MO), Tumor Site: Type of Lesion: LIVER: HEPATOCELLULAR ADENOMA) “active; positive”; (Species: MOUSE, Strain/Sex: CDF1/FEMALE, Route: ORAL, Dose: 0, 0.05% IN DIET FOR UP TO 685 D (STUDY DURATION: 685 D), Tumor Site: Type of Lesion: LIVER: HEPATOCELLULAR ADENOMA OR CARCINOMA, BLOOD VESSELS: HEMANGIOENDOTHELIOMA OR HEMANGIOENDOTHELIAL SARCOMA) “active; positive”; (Species: MOUSE, Strain/Sex: CDF1/MALE, Route: ORAL, Dose: 0, 0.05% IN DIET FOR 12 MO (STUDY DURATION: 12 MO), Tumor Site: Type of Lesion: BROWN ADIPOSE TISSUE: HEMANGIOENDOTHELIAL SARCOMA, LIVER: HEPATOCELLULAR ADENOMA OR CARCINOMA, LUNG: PULMONARY ADENOMA O, Tumor Site: Type of Lesion: BROWN ADIPOSE TISSUE: HEMANGIOENDOTHELIAL SARCOMA, LIVER: HEPATOCELLULAR ADENOMA OR CARCINOMA, LUNG: PULMONARY ADENOMA O) “active; positive”. The carcinogen call (Species: MOUSE, Strain/Sex: CDF1/MALE, Route: ORAL, Dose: 0, 0.05% IN DIET FOR UP TO 685 D (STUDY DURATION: 685 D), Tumor Site: Type of Lesion: BLOOD VESSELS: HEMANGIOENDOTHELIOMA OR HEMANGIOENDOTHELIAL SARCOMA) was “active; positive”; the carcinogen call (Species: RAT, Strain/Sex: F344/FEMALE, Route: ORAL, Dose: 0, 500 PPM IN DIET (AV DAILY DOSE: 4.3 MG) FOR 24 MO (STUDY DURATION: 104 WK), Tumor Site: Type of Lesion: LIVER: HEPATOCELLULAR CARCINOMA OR ANAPLASTIC HEPATOMA, SMALL INTESTINE: ADENOMA OR ADENOCARCINOMA OR MUCINOUS CARCINOMA) was “active; positive”; the carcinogen call (Species: RAT, Strain/Sex: F344/MALE, Route: ORAL, Dose: 0, 500 PPM IN DIET (AV DAILY DOSE: 7.4 MG) FOR 24 MO (STUDY DURATION: 104 WK), Tumor Site: Type of Lesion: LIVER: HEPATOCELLULAR CARCINOMA OR ANAPLASTIC HEPATOMA, SMALL INTESTINE: ADENOMA OR ADENOCARCINOMA OR MUCINOUS CARCINOMA) was “active; positive”.

As to `Cc1cccc(Nc2cc(Cl)nc(SCC(=O)O)n2)c1C`, the carcinogen call reads like this: (Species: MOUSE, Strain/Sex: STRAIN-CS/MALE, Route: ORAL, Dose: 0.1% (W/W) IN DIET FOR 6 MO THEN 0.05% IN DIET FOR 8.5 MO, Tumor Site: Type of Lesion: LIVER: HEPATOCELLULAR CARCINOMA) “active; positive”; (Species: RAT, Strain/Sex: CD-1/MALE, Route: ORAL, Dose: 0, 50 PPM IN DIET FOR 43 WK FOLLOWED BY 25 PPM IN FEED FOR 61 WK (STUDY DURATION: 2 YR), Tumor Site: Type of Lesion: LIVER: ADENOMA, ADENOMA OR CARCINOMA, TESTES: LEYDIG CELL ADENOMA, PANCREAS: ACINAR CELL ADENOMA OR CARCINOMA, Tumor Site: Type of Lesion: LIVER: ADENOMA, ADENOMA OR CARCINOMA, TESTES: LEYDIG CELL ADENOMA, PANCREAS: ACINAR CELL ADENOMA OR CARCINOMA) “active; positive”; (Species: RAT, Strain/Sex: F344/MALE, Route: ORAL, Dose: 0, 0.05, 0.10% IN DIET STARTED AT 2 MO OF AGE FOR STUDY DURATION (STUDY DURATION: 22 WK), Dose: 0, 0.05, 0.10% IN DIET STARTED AT 2 MO OF AGE FOR STUDY DURATION (STUDY DURATION: 22 WK), Tumor Site: Type of Lesion: LIVER: HEPATOCELLULAR CARCINOMA, HEPATOCELLULAR ADENOMA) “active; positive”; (Species: RAT, Strain/Sex: F344/MALE, Route: ORAL, Dose: 0.00, 0.05, 0.10% IN DIET STARTED AT 15 MO OF AGE FOR STUDY DURATION (STUDY DURATION: 22 WK), Dose: 0.00, 0.05, 0.10% IN DIET STARTED AT 15 MO OF AGE FOR STUDY DURATION (STUDY DURATION: 22 WK), Tumor Site: Type of Lesion: LIVER: HEPATOCELLULAR CARCINOMA, HEPATOCELLULAR ADENOMA) “active; positive”; (Species: RAT, Strain/Sex: F344/MALE, Route: ORAL, Dose: 0, 0.1% IN DIET FOR 22 WK (STUDY DURATION: 22 WK)) “inactive; negative”; (Species: RAT, Strain/Sex: F344/MALE, Route: ORAL, Dose: 0, 0.1% IN DIET FOR 22 WK FOLLOWED BY BASAL DIET UNTIL TERMINATION AT 37, 52, OR 104 WK, RESPECTIVELY (STUDY DURATION: 3) “inactive; negative”. For the same compound, the carcinogen call reads like this: (Species: RAT, Strain/Sex: F344/MALE, Route: ORAL, Dose: 0, 0.1% IN DIET FOR 37 WK (STUDY DURATION: 37 WK), Tumor Site: Type of Lesion: LIVER: HEPATOCELLULAR ADENOMA) “active; positive”; (Species: RAT, Strain/Sex: F344/MALE, Route: ORAL, Dose: 0, 0.1% IN DIET FOR 37 WK FOLLOWED BY BASAL DIET UNTIL TERMINATION AT 52 OR 104 WK (STUDY DURATION: 52 OR 104 WK)) “inactive; negative”; (Species: RAT, Strain/Sex: F344/MALE, Route: ORAL, Dose: 0, 0.1% IN DIET FOR 52 WK (STUDY DURATION: 52 WK), Tumor Site: Type of Lesion: LIVER: HEPATOCELLULAR ADENOMA, HEPATOCELLULAR CARCINOMA) “active; positive”; (Species: RAT, Strain/Sex: F344/MALE, Route: ORAL, Dose: 0, 0.1% IN DIET FOR 52 WK FOLLOWED BY BASAL DIET UNTIL TERMINATION AT 104 WK (STUDY DURATION: 104 WK), Tumor Site: Type of Lesion: LIVER: HEPATOCELLULAR ADENOMA OR CARCINOMA) “active; positive”; (Species: RAT, Strain/Sex: F344/MALE, Route: ORAL, Dose: 0, 0.1% IN DIET FOR 78 WK (STUDY DURATION: 78 WK), Tumor Site: Type of Lesion: LIVER: NEOPLASM) “active; positive”; (Species: RAT, Strain/Sex: F344/MALE, Route: ORAL, Dose: 0.1% (W/W) IN DIET FOR 16 MO, Tumor Site: Type of Lesion: LIVER: HEPATOCELLULAR CARCINOMA) “active; positive”. Besides, the carcinogen call is “inactive; negative” (Species: RAT, Strain/Sex: F344/MALE, Route: ORAL, Dose: 0.1% IN DIET FOR 11 WK FOLLOWED BY CONTROL DIET FOR DURATION OF STUDY (STUDY DURATION: 56 WK)); “active; positive” (Species: RAT, Strain/Sex: F344/MALE, Route: ORAL, Dose: 0.1% IN DIET FOR 43 WK (STUDY DURATION: 56 WK), Tumor Site: Type of Lesion: LIVER: HEPATOCELLULAR CARCINOMA); “active; positive” (Species: RAT, Strain/Sex: F344/MALE, Route: ORAL, Dose: 0.1% IN DIET FOR 54 WK (STUDY DURATION: 56 WK), Tumor Site: Type of Lesion: LIVER: HEPATOCELLULAR CARCINOMA); “active; positive” (Species: RAT, Strain/Sex: F344/MALE, Route: ORAL, Dose: 0.2% (W/W) IN DIET FOR 65 WK, Tumor Site: Type of Lesion: LIVER: HEPATOCELLULAR CARCINOMA).
